Assay results from patent US8236809B2, “Substituted 1,2,3-triazolopyrimidines for the inhibition of NAD(P)H oxidases and platelet activation” (Vasopharm GmbH, priority 2004, dated 2012).

These compounds were tested on platelets (assay: Inhibition of thrombin-induced (TRAP-6) platelet activation: P-Selectin expression on washed platelets, flow cytometry). Conditions: Homo sapiens, 5 μmol/l compound, 1 min pre-incubation, washed platelets stimulated 2 min with TRAP-6, read-out: % Inhibition of activation (percent reduction of TRAP-6 induced P-Selectin expression).
Assay type: cell-based
Experimental: Expression of P-Selectin on the surface of platelets was used as a marker of platelet activation.
All experiments were performed with washed platelets (PRP). Fresh venous blood from healthy volunteers (40 ml) was collected into 10 ml of 5-fold CCD-solution (7 mM citric acid, 100 mM trisodium citrate, 140 mM glucose, 15 mM EGTA as anti-coagulant, pH 6.5). Platelet rich plasma was prepared by centrifugation at 300 g for 20 min. The supernatant was collected and incubated for 10 min at room temperature. Platelets were pelleted from the supernatant by a second centrifugation step at 500 g for 20 min. The pellet was resuspended in 5 ml HEPES buffer (145 in M NaCl, 5 mM KCl, 1 in M MgCl2, 10 mM glucose, 10 mM HEPES, pH 7.4). Platelet concentration was adjusted to 3×10^8 platelets/ml with HEPES buffer.
Washed platelets (0.2 ml) were silenced for 1 h at room temperature in siliconised reaction tubes. After pre-incubation with compounds of example 1-11 for 1 min the washed platelets were stimulated for 2 min with thrombin receptor activating peptide (TRAP-6, BACHEM Biochemicals, Heidelberg, Germany).
As a positive control, 0.2 ml of washed platelets were pre-incubated with 10 μM of the NO-releasing compound sodium nitroprussid (SNP, Sigma, Deisenhofen).
After incubation, 20 μl of the sample was pipetted to 10 μl of FITC-labelled anti-CD62P antibody (DAKO, Glostrup, Denmark) and incubated for 15 min in the dark. After incubation the samples were diluted with 1.5 ml of phosphate buffered saline and immediately measured on a cytometer.
For background substraction, one sample was incubated with 10 μl of FITC-labelled un-specific mouse IgG1 (DAKO, Glostrup, Denmark).
For cytometry the Becton-Dickinson FACS-Calibur instrument (settings: FSC: E00; SSC: 337 V; FL-1:600 V) was used. For each measurement 20000 cells were analysed. Results were obtained as mean fluorescence intensity (MFI) calculated using the CellQuest program (Ver. 1.0; Becton-Dickinson).
Inhibition of platelet activation is given as percent reduction of TRAP-6 induced P-Selectin expression in the presence of 5 μmol/l of examples 1-11: […]

First: c1ccc(Cn2nnc3c(Sc4nc5ccccc5o4)ncnc32)cc1 [Example 1, 3-benzyl-7-(2-benzoxazolyl)thio-1,2,3-triazolo[4,5-d]pyrimidine]
Second: Clc1ccccc1Cn1nnc2c(Sc3nc4ccccc4o3)ncnc21 [Example 11, 7-(2-benzoxazolyl)thio-3-o-chlorobenzyl-1,2,3-triazolo[4,5-d]pyrimidine]
The inhibition at 5 µM of the first is lower: 49% for the first, 80% for the second.

First: c1ccc(Cn2nnc3c(Sc4ccccn4)ncnc32)cc1 [Example 2, 3-benzyl-7-(2-pyridyl)thio-1,2,3-triazolo-[4,5-d]pyrimidine]
Second: c1ccc(Cn2nnc3c(Sc4ncco4)ncnc32)cc1 [Example 3, 3-benzyl-7-(2-oxazolyl)thio-1,2,3-triazolo[4,5-d]pyrimidine]
The inhibition at 5 µM of the first is lower: 34% for the first, 55% for the second.

First: c1ccc(Cn2nnc3c(Sc4nccs4)ncnc32)cc1 [Example 4, 3-benzyl-7-(2-thiazolyl)thio-1,2,3-triazolo[4,5-d]pyrimidine]
Second: c1ccc(Cn2nnc3c(Sc4ncc[nH]4)ncnc32)cc1 [Example 5, 3-benzyl-7-(2-imidazolyl)thio-1,2,3-triazolo[4,5-d]pyrimidine]
The inhibition at 5 µM of the first is higher: 45% for the first, 21% for the second.

Going from `Cc1nc(Sc2nc3ccccc3o2)c2nnn(Cc3ccccc3)c2n1` [Example 6, 3-benzyl-7-(2-benzoxazolyl)thio-5-methyl-1,2,3-triazolo[4,5-d]pyrimidine] to `COc1ccc(Cn2nnc3c(Sc4nc5ccccc5o4)ncnc32)cc1` [Example 10, 7-(2-benzoxazolyl)thio-3-p-methoxybenzyl-1,2,3-triazolo[4,5-d]pyrimidine], the inhibition at 5 µM rises from 39% to 60%.

Compared with `Cn1nnc2c(Sc3nc4ccccc4o3)ncnc21` [Example 8, 7-(2-benzoxazolyl)thio-3-methyl-1,2,3-triazolo[4,5-d]pyrimidine], `c1ccc(-n2nnc3c(Sc4nc5ccccc5o4)ncnc32)cc1` [Example 9, 7-(2-benzoxazolyl)thio-3-phenyl-1,2,3-triazolo[4,5-d]pyrimidine] is higher in inhibition at 5 µM: 38% for the first, 44% for the second.

Each compound was assayed on NAD(P)H oxidases (NOX) in HL-60 cells (assay: Assay of NOX activity: cytochrome C reduction in PMA-stimulated differentiated HL-60 cells). Conditions: 100 U/ml superoxide dismutase, used as a control in some experiments.
Assay type: cell-based, human
Experimental: (§1) Measurement of cytochrome C-reduction was used to assess the NOX-activity in HL-60 cells.
(§2) The human acute myeloid leukemia cell line HL-60 (ECACC 98070106) was cultured in RPMI 1640 (Biochrom, Berlin, Germany) supplemented with 5% heat-inactivated calf serum, 2 mM glutamine (GLUTAMAX, Invitrogen, Karlsruhe, Germany), 100 U/ml penicillin (Sigma, Taufkirchen, Germany), and 100 μg/ml streptomycin (Sigma, Taufkirchen, Germany) at 37° C. under a humidified atmosphere of 5% CO2. Cells were maintained at 0.1−2.0×10^6 cells/ml. To induce myeloid differentiation, the cells were seeded to a density of 0.5×10^6 cells/ml and cultivated for 6 days in medium containing 1.25% (v/v) dimethylsulfoxide (DMSO). […]
(§3) E550 and E540 were measured once before stimulation of the cells on a micro-plate reader (Multiskan Spektrum, Thermo Electron Corporation, Dreieich, Germany). E540 was the isosbestic point and used to normalize absorbance at 550 nm (E550/E540). […]
(§4) The plate was shaken for 10 sec in the micro-plate reader and then incubated at 37° C. under a humidified atmosphere of 5% CO2. E550 and E540 were measured after 60 and 120 min.
(§5) For calculation, the absorbance at 550 nm was normalized to absorbance at the isosbestic point at 540 nm for each individual well. […] NOX-activities were expressed as % of the activity in PMA-stimulated control cells. […]

In the case of “SOD: superoxide dismutase from bovine erythrocytes, EC1.15.1.1, used as a control”, the “Inhibition of the signal by SOD” value is reported as over 95%.

The compounds below were run against NAD(P)H oxidases (NOX) in HL-60 cells (Homo sapiens, UniProt P04839) in the same assay as above. Conditions: HL-60; DPI final conc. 10 μM, control inhibitor; 'usually'; read-out: Residual activity of DPI-treated cells (NOX activity as % of the activity in PMA-stimulated control cells).
Sequence of NAD(P)H oxidases (NOX) in HL-60 cells (Homo sapiens, UniProt P04839) (P04839 whole entry): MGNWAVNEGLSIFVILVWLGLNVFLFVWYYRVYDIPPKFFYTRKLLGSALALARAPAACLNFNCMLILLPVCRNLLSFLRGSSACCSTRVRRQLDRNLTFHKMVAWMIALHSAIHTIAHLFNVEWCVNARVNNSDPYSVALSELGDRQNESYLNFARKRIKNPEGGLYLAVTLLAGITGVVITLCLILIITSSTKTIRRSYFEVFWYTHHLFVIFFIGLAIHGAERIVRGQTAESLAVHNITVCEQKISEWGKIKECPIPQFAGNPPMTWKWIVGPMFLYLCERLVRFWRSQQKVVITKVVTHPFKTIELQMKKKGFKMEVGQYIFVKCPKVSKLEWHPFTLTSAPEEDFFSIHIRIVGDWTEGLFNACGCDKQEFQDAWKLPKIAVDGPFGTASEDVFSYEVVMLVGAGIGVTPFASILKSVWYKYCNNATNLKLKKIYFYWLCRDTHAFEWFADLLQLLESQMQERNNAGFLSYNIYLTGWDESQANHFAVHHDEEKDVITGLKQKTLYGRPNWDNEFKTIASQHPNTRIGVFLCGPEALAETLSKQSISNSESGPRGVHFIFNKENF
Assay type: cell-based
Experimental: as §1, §2, §3, §4, §5

Compound `c1ccc2c(c1)[I+]c1ccccc1-2` [DPI, Diphenyleneiodonium chloride] has an activity at 10 µM of under 10%.
